Common to all, as to assay: NCI anticancer screen, dose series, 48 h
Test [1] has as its system SK-MEL-2 melanoma.
Test [2] has as its system A498 renal.
Test [3] has as its system IGROV1 ovarian.
In test [4] the test system is SW-620 colon.
Test [5] deals with DLD-1 colon.
Test [6] relates to HCT-116 colon.
Test [7] deals with SNB-19 CNS.
The test system of test [8] is LOX IMVI melanoma.
Test [9] has as its system XF 498 CNS.
In test [10] the test system is MDA-MB-231 breast.

The structures appear in SMILES notation. Where “and” joins values, the source holds several entries; their conditions need not be identical. Identical values can stand only once.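 Cells were grown in 96-well plates and exposed to each compound for 48 hours at five concentrations; endpoints were interpolated linearly between bracketing concentrations, or set to the highest concentration if not reached. Abbreviation: GI50, concentration required for 50% inhibition of growth. At the TGI there is no net growth.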

Regarding `CCOC(=O)[C@H]1CSC[C@@H](C(=O)OC)N1`, the TGI in test [1], in test [2], in test [3], in test [4], in test [5] and in [6] was > 100 µM in each case. The TGI in [7] and in test [8] was > 100 µM each time.
Turning to `COC(=O)[C@@]1(O)CC(C)C=C1C=O` (some centres not stated), the TGI in test [1] was > 100 µM; in test [2] it was > 100 µM; in [3] it was > 100 µM; in test [4], > 100 µM; in test [5], > 100 µM; in test [6], 38.4 µM. For the same molecule, the TGI in [7], in test [9] and in test [8] was > 100 µM each time.
Regarding `COc1ccc(-c2nnc(-c3c(C)n(C)n(-c4ccccc4)c3=O)o2)cc1`, the TGI in test [1], in [2], in [3], in [4], in [5] and in [6] was > 100 µM in each case. For the same molecule, the TGI in test [7], in test [9] and in test [8] was > 100 µM each time.
With `O=[P+](O)c1cc2ccccc2c2ccccc12`, the TGI in test [3], in test [4], in test [5], in test [6], in test [7] and in test [8] was > 100 µM in each case.
As for `O=C(O)C(C(=O)C(=O)C(C(=O)O)c1ccc(Cl)cc1)c1ccc(Cl)cc1` (configuration not stated), the TGI in [2] was 16.6 µM; in test [3], 9.03 µM; in test [4], 13.5 µM; in [5], 14.1 µM; in test [6], 12.1 µM; in [7], 14.3 µM. In addition, the TGI worked out at 5.95 µM in test [9] and 8.79 µM in test [8].
For `CC(C)N1CCC2(CC1)NNc1ncccc1-n1cccc12`, the TGI in test [1], in test [4], in [5], in [6], in test [7] and in test [9] was > 100 µM each time. Further, the TGI in test [8] is > 100 µM.
As for `CCC(=O)C(C)C(=O)C(=O)C(=O)OC` (configuration not stated), the TGI in test [1] was > 100 µM; in test [2], > 100 µM; in test [3] it was > 100 µM; in test [4], > 45.7 µM; in test [5], > 100 µM; in [6], > 100 µM. Also, the TGI in test [7], in test [9] and in test [8] was > 100 µM throughout.
For the molecule `Cc1ccc(-c2cc(=O)c3cc(C)c(C)c(C(=O)O)c3o2)cc1`, the TGI in test [1], in [2], in test [3], in [4], in test [5] and in [6] was > 100 µM in each case. Also, the TGI in test [7], in [9] and in test [8] was > 100 µM each time.
As to `CC(C)(c1ccc(Oc2ccc(C#N)c(C#N)c2)cc1)c1ccc(Oc2ccc(C#N)c(C#N)c2)cc1`, the GI50 in test [1], in test [2], in [3], in [5], in test [6] and in test [7] was > 100 µM each time. Further, in test [8], the GI50 is > 100 µM. Also, the TGI in test [1], in test [2], in test [3], in [4], in [5] and in [6] was > 100 µM in each case. Moreover, the TGI in [7] and in test [8] was > 100 µM each time.
For the molecule `CN(C(=O)C12C3(C(=O)C(C)(C)C)C4C5(C#N)C3C1(C(=O)C(C)(C)C)C5C42C(=O)C(C)(C)C)C(C)(C)C` (configuration not stated), the TGI in test [2], in test [3], in [4], in test [5], in test [6] and in [7] was > 50 µM throughout. In [9], the TGI is > 50 µM.
Turning to `CC(=O)OC(C)(C)/C=C/C(=O)[C@](C)(O)[C@H]1[C@H](O)C[C@@]2(C)[C@@H]3CC=C4[C@@H](C[C@H](O)C(=O)C4(C)C)[C@]3(CO)C(=O)C[C@]12C`, the GI50 in [1] was 0.0339 µM; in test [2], 0.0791 µM; in test [3] it was 0.463 µM; in [4], 0.159 µM; in [5] it was 0.216 µM; in test [6], 0.236 µM. In addition, the GI50 is 0.213 µM in test [7], 0.108 µM in test [9] and 0.0999 µM in [8]. For the same molecule, the TGI is 0.416 µM and 0.104 µM in [1]; 0.431 µM and 0.213 µM in test [2]; 0.907 µM and 2.89 µM in test [3]; 20 µM in test [4]; 15 µM in test [5]; 10 µM in test [6]. The TGI is 0.58 µM and 0.559 µM in test [7]; 0.665 µM and 0.209 µM in test [9]; 0.492 µM and 0.455 µM in test [8].
Take `O=c1nc(NC(c2ccccc2)(c2ccccc2)c2ccccc2)ccn1CCO`: the TGI in test [1], in test [2], in [3], in [4], in test [5] and in [6] was > 100 µM throughout. Further, the TGI in test [7] and in [8] was > 100 µM each time.
Consider `CCO/C=C1\N=C(C(Cl)c2ccccc2)OC1=O` (configuration not stated), for which the TGI in [1], in [2], in [3], in test [4], in test [5] and in test [7] was > 100 µM in each case. Further, the TGI in test [9] and in test [8] was > 100 µM each time.
For `CC(C)(O)[C@@H]1CC[C@@]2(C)CCC[C@H](O)[C@H]2C1`, the TGI in [1], in [2], in [3], in [4], in test [5] and in test [6] was > 100 µM in each case. Also, the TGI in test [7], in test [9] and in test [8] was > 100 µM each time.
As to `COc1ccc(OC)c(NCC#N)c1`, the TGI in [1], in test [2], in [3], in test [4], in [6] and in [7] was > 100 µM throughout. For the same molecule, the TGI in test [9] and in [8] was > 100 µM throughout.
With `COC1=C2C[C@H](O)C(C)C[C@@]2(OC)OC1=O` (some centres not stated), the TGI in test [1], in test [2], in test [3], in [4], in [5] and in [6] was > 100 µM throughout. Besides, the TGI in test [7], in [9] and in test [8] was > 100 µM in each case.
As for `O=C1C2CC=CCC2C(=O)C12CCc1ccccc12` (configuration not stated), the TGI in [3], in test [4], in test [5], in [9] and in test [8] was > 100 µM in each case.
For `CCCCCCCCC(O)C#CC(N)=O` (configuration not stated), the TGI came out at 26.3 µM in [1]; 31 µM in [2]; 37.2 µM in [4]; 21.8 µM in test [5]; 16.6 µM in test [6]; 26.3 µM in [7]. The results for the TGI in test [9] and in test [8] were 30.8 µM and 24 µM, respectively.
As for `COC(=O)c1ccc(NC(=O)c2cc(OC)c(OC)c(OC)c2)cc1`, the TGI in test [1], in test [2], in [3], in [4], in [5] and in [6] was > 100 µM throughout. Further, the TGI in test [7] and in test [8] was > 100 µM each time.
As for `O=c1cc(-c2ccccc2)nc(/C=C(\O)c2ccncc2)n1-c1ccccc1`, the TGI in test [1], in test [2], in test [3], in [4], in test [5] and in test [6] was > 100 µM in each case. Also, the TGI in test [7] and in test [8] was > 100 µM throughout.
As for `CCCCN=C(NC#N)N(Cc1ccccc1)Cc1ccccc1`, the TGI in test [1] is 36.8 µM; in test [2] it was 63.7 µM; in [3] it was 74.4 µM; in [4], 30.4 µM; in [5], 36.4 µM; in [6], 39.5 µM. The TGI in test [7] is > 100 µM; in test [8] it was 29.7 µM.
For `COc1ccc([I+]c2ccccc2)cc1`, the GI50 was 51.4 µM in test [1]; 1.9 µM in test [2]; 8.99 µM in test [3]; 3.37 µM in test [4]; 0.735 µM in [6]; 11.3 µM in test [7]. Also, the GI50 is > 78.2 µM in test [10] and 3.47 µM in test [8]. The TGI in test [1] was > 100 µM; in test [2], > 93.2 µM; in test [3], > 100 µM; in test [4], > 100 µM; in test [6] it was > 100 µM; in test [7], > 100 µM. Also, the TGI in [10] and in [8] was > 100 µM throughout.
For `CC1(C)CCC[C@]2(C)c3cc(O)ccc3CC[C@@H]12`, the GI50 in [1] is 20.1 µM; in test [2], 16.2 µM; in [3], 20.4 µM; in test [4], 13.8 µM; in [6], 42.2 µM; in [7] it was 17 µM. Moreover, the GI50 in test [10] was 16.2 µM; in [8], 16.9 µM. The TGI in [1] was 43 µM; in [2] it was 29.7 µM; in test [3] it was 38.8 µM; in test [4], 29 µM; in [6] it was > 100 µM; in [7], 33.9 µM. For the same molecule, the TGI in [10] was 30.4 µM; in [8], 33.7 µM.
As for `N#C/C(=C\Nc1ccccn1)C(=O)c1ccco1`, the TGI in test [1], in test [2], in [3], in [4], in test [6] and in test [7] was > 100 µM in each case. In addition, the TGI in test [10] and in [8] was > 100 µM in each case.
For `O=C(O)C1C(=O)Oc2c(cccc2[N+](=O)[O-])C1O` (configuration not stated), the TGI in [1], in [2], in [3], in [4], in test [6] and in test [7] was > 100 µM in each case. Moreover, the TGI in [10] and in [8] was > 100 µM each time.
Regarding `O=C(NCCN1CCC(O)CC1)c1cc2c(o1)C(=O)c1ccccc1C2=O`, the GI50 is 0.518 µM in test [1]; 0.17 µM in test [2]; 0.3 µM in test [3]; 0.31 µM in test [4]; 0.301 µM in test [6]; 0.27 µM in [7]. The GI50 in test [10] is 0.377 µM; in test [8], 0.145 µM. Further, the TGI in [1] was found to be 2.21 µM; in [2], 0.34 µM; in test [3], 1.02 µM; in test [4] it was 1.05 µM; in test [6] it was 1.05 µM; in test [7] it was 0.956 µM. In addition, the TGI in test [10] is 2.9 µM; in test [8], 0.337 µM.
Regarding `Oc1ccc2ccccc2c1C1NN=C(c2ccccc2)S1` (configuration not stated), the GI50 in test [1] was 0.41 µM; in test [2] it was 1.34 µM; in test [3], 0.485 µM; in test [4], 0.806 µM; in test [6], 0.408 µM; in [7] it was 0.683 µM. Further, the GI50 in [10] was 0.621 µM; in test [8], 0.327 µM. Also, the TGI was 14.9 µM in test [1]; 14.1 µM in [2]; 30.3 µM in [3]; > 100 µM in [4]; > 34.4 µM in test [6]; > 100 µM in [7]. Moreover, the TGI is 35.7 µM in [10] and 13 µM in test [8].
In the case of `Cc1ccc(C(=O)N2c3ccccc3N(C)n3cccc3C2CC(=O)O)cc1` (configuration not stated), the TGI in [1], in test [2], in [3], in test [4], in [5] and in [7] was > 100 µM each time. In addition, the TGI in test [9] and in test [8] was > 100 µM in each case.

The values above are taken from PubChem BioAssay (NCI).
